Our source for the IC50 and JAK1/TYK2 selectivity values is patent publication EP4813463A2, “TYK2 INHIBITORS AND COMPOSITIONS AND METHODS THEREOF” (Lynk Pharmaceuticals Co. Ltd., priority 2023, dated 2024).

pIC50: −log10 of the molar value. Like-named read-outs stand apart in the source and are kept apart here. A value given as a limit tells only on which side of the number the result lay.

The target in one assay is T1, TYK2-JH2 domain (Homo sapiens, UniProt P29597).
T1 construct: JAK1-JH2 domain or TYK2-JH2 domain enzyme in assay buffer
Description: Binding activity test for JH2 domain of TYK2 (Tb-antibody/tracer FRET). As to conditions: for pIC50: JH2 domain enzyme, 60 min at 25°C, then 4°C overnight, read-out: TYK2 JH2 Binding IC50. Put shortly:
(§1)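 IC50 values (nM) come from TR-FRET readings taken after a 25°C incubation followed by overnight at 4°C. Each well held JH2 domain protein, Tb-antibody, tracer and test compound titrated in 11 threefold steps, with DMSO high and low controls.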

The test system of assay [1] is Ba/F3-FL-TYK2-P760L cells. Description: Anti-proliferative assay in engineered Ba/F3 cells (Cell-Titer Glo, 72 h). In kind it is cell-based. The conditions noted are these: 72 h compound treatment, concentration that causes 50% growth inhibition, read-out: Baf3-FL-T2P760L. Put shortly: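 IC50 from luminescent ATP viability after 72 h compound exposure (37 °C, 5% CO2), % inhibition normalised to DMSO-treated cells minus medium blank. IL-3-free Ba/F3-FL-TYK2-P760L (Tel-JAK fusion) cells in 10% FBS RPMI-1640 received 9 three-fold doses, top 20 µM, 0.1% DMSO.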

Assay [2] relates to IFNa pSTAT1. Description: Phosphorylation of STAT1 inhibition in HMC3 cells by Jess. In kind it is cell-based. The conditions noted are these: Homo sapiens; HMC3 microglia cells, 50ng/mL hINFα 1 hour, Jess western; read-out: Jess_HMC3 IC50 (IFNa pSTAT1). As for the experimental part: Seeding HMC3 cells into 12-well plate and incubate overnight. Pre-stimulation with recombinant human IFNα (Sino biological, H08Y), treat cells with compound with different concentration for 1hr. After compound treatment, stimulate HMC3 cells with 50ng/mL hINFα for another 1 hour (for CCF-STTG1 cells IFNα induction time is 30 mins). And then wash cells with DPBS once gently and lyse cells with pre-cooled RIPA buffer (Sigma, R0278-500ML) for 30min on ice to harvest cells. Centrifuge cell lysate for 20 mins at 12000rpm with freezer centrifuge (Thermo Scientific, Heraeus Fresco 21) to extract protein. Prepare samples with Jess Simple Wes kit (SM-WO04) and then run western blot on Jess simple western system (Protein simple, JS-4631). Collect data and analyzed with GraphPad Prism.

In assay [3] the test system is IFNa pSTAT1. Description: Phosphorylation of STAT1 inhibition in HMC3 cells with HTRF assay. It counts as cell-based. The conditions noted are these: Homo sapiens, HMC3 microglia cells, 50ng/mL hINFα 1 hour, read-out: HTRF_HMC3 IC 50 (IFNa pSTAT1). As to the method:
Seeding HMC3 cells into 96-well plate and incubate overnight. Pre-stimulation with recombinant human IFNα (Sino biological, H08Y), treat cells with compound with different concentration for 1hr. After compound treatment, stimulate cells with 50ng/mL hINFα for another 1 hour (for CCF-STTG1 cells IFNα induction time is 30 mins). After compound treatment and cytokine stimulation, dump old medium and lyse cells with supplemented lysis buffer provided by the HTRF kit (Revvity, 63ADK026PEG) for 30 min at room temperature under shaking. After homogenization by pipetting up and down, transfer 16 µL of cell lysate from the 96-well cell-culture plate to a small volume white 384-well plate, and then add 4 µL of pre-mixed two ready-to-use antibody working solution into each wells. Cover the plate with a plate sealer and incubate it overnight at room temperature. Read the fluorescence emission at two different wavelengths (665nm and 620nm) on microplate reader (Molecular Device, SpectraMax i3X). Collect data and analyzed with GraphPad Prism.
A general note: In TR-FRET formats the signal depends on donor and acceptor labels being close together.

Another assay deals with T2, JAK1-JH2 domain (Homo sapiens, UniProt P23458).
T2 construct: JAK1-JH2 domain or TYK2-JH2 domain enzyme in assay buffer
Description: Binding activity test for JH2 domain of JAK1 (Tb-antibody/tracer FRET). As to conditions: JH2 domain enzyme; 60 min at 25°C, then 4°C overnight; read-out: JAK1 JH2 Binding IC50. Put shortly:
as §1

T1 sequence (P29597 589-875 limits assumed): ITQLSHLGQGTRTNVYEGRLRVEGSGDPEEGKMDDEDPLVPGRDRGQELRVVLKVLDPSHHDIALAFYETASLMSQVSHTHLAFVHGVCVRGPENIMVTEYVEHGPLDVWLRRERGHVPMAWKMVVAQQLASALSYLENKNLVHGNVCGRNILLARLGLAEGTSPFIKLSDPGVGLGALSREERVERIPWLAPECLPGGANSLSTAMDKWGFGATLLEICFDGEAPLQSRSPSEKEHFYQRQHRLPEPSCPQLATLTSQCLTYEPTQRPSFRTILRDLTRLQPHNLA
T2 sequence (P23458 583-855 limits assumed): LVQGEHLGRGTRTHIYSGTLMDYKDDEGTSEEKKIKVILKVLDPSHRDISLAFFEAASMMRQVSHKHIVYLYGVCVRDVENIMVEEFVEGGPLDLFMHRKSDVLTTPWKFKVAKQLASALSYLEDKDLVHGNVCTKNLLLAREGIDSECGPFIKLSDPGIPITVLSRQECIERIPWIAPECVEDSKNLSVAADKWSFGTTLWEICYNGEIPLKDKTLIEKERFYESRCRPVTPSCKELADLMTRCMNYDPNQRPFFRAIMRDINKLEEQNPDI

In the case of `CCC(F)(F)c1cnc(NC(=O)C2CC2)cc1Nc1nn(C)c2ccc(C(O)C(F)(F)F)c(OC)c12` (single isomer, unassigned) [Example 193A, (S*)-N-(5-(1,1-Difluoropropyl)-4-((4-methoxy-1-methyl-5-(2,2,2-trifluoro-1-hydroxyethyl)-1H-indazol-3-yl)amino)pyridin-2-yl)cyclopropanecarboxamide], the pIC50 on TYK2-JH2 domain is 9.38; in assay [1], 9.40; in the assay on IFNa pSTAT1 [2], 8.37; in the assay on IFNa pSTAT1 [3], 9.09.

In the case of `COC(=O)c1cnc(NC(=O)C2CC2)cc1Nc1nn(C)c2ccc(C(OC)C(F)F)c(OC)c12` (stereo not shown) [Example 68, Methyl 6-(cyclopropanecarboxamido)-4-((5-(2,2-difluoro-1-methoxyethyl)-4-methoxy-1-methyl-1H-indazol-3-yl)amino)nicotinate], the pIC50 at TYK2-JH2 domain is 9.85; at JAK1-JH2 domain it was 7.79; in assay [1] (Mus musculus, BaF3, 72 h), 8.44; with IFNa pSTAT1 [2], 8.50; with IFNa pSTAT1 [3], above 10.21. On TYK2-JH2 domain (ratio of JAK1 JH2 to TYK2 JH2 binding IC50), the JAK1/TYK2 selectivity worked out at 116.36.
